Measured values from the NIST ThermoML archive (doi:10.1016/j.fluid.2018.07.022).
Numbers after ± are expanded uncertainties.

Conditions: Liquid, Pendant drop shape

[HH] [hydrogen] + O
Conditions	interfacial tension [mN/m]
298.03 K, 500 kPa	72.3 ± 1.2
298.03 K, 1000 kPa	72.9 ± 1.2
298.04 K, 2000 kPa	73 ± 1.2
298.04 K, 5000 kPa	72.6 ± 1.2
298.04 K, 7500 kPa	72.2 ± 1.2
298.04 K, 10100 kPa	71.9 ± 1.2
298.04 K, 25000 kPa	70.3 ± 1.2
298.05 K, 3500 kPa	72.8 ± 1.2
298.05 K, 45200 kPa	68.7 ± 1.2
298.06 K, 15000 kPa	71.3 ± 1.2
298.06 K, 20100 kPa	70.8 ± 1.2
298.06 K, 30100 kPa	69.8 ± 1.2
298.09 K, 39900 kPa	69.1 ± 1.2
322.9 K, 1000 kPa	69.3 ± 1.2
322.98 K, 2000 kPa	69.3 ± 1.2
322.99 K, 5000 kPa	68.9 ± 1.2
323 K, 3500 kPa	69.1 ± 1.2
323 K, 10000 kPa	68.3 ± 1.2
323 K, 15000 kPa	67.8 ± 1.2
323 K, 40100 kPa	65.8 ± 1.1
323.01 K, 20000 kPa	67.2 ± 1.1
323.01 K, 25000 kPa	66.8 ± 1.1
323.02 K, 500 kPa	68.9 ± 1.2
323.02 K, 30100 kPa	66.5 ± 1.1
372.73 K, 15000 kPa	59 ± 1
372.74 K, 500 kPa	59.8 ± 1
372.77 K, 1000 kPa	59.7 ± 1
372.77 K, 25200 kPa	58.5 ± 1
372.77 K, 29800 kPa	58.1 ± 1
372.78 K, 2000 kPa	59.7 ± 1
372.78 K, 40100 kPa	57.6 ± 1
372.81 K, 10000 kPa	59.3 ± 1
372.85 K, 20100 kPa	58.7 ± 1
372.87 K, 5000 kPa	59.5 ± 1
448.02 K, 2000 kPa	44.1 ± 0.8
448.04 K, 1500 kPa	44 ± 0.8
448.24 K, 5000 kPa	43.8 ± 0.7
448.28 K, 15000 kPa	43.4 ± 0.7
448.29 K, 10000 kPa	43.7 ± 0.7
448.31 K, 25000 kPa	43.2 ± 0.7
448.31 K, 30100 kPa	42.9 ± 0.7
448.33 K, 20000 kPa	43.3 ± 0.7
448.35 K, 40100 kPa	43.2 ± 0.7
